Experimental data reported in patent US6743917B2, “Camptothecin analogs and methods of preparation thereof” (University of Pittsburgh, priority 1993, dated 2004).
Read-outs that look alike come from different tables or passages of the source.

How the values were obtained:
[1] = human; for t1/2: blood
[2] = Kinetics of lactone ring opening in RBC (HPLC); type: in vitro ADME, human
Source text: Kinetics of Lactone Ring Opening. […] Mi and Burke (1994), supra. […] Louis, Mo.) was used.

[3] = in vitro; settings: human
[4] = system: 833K (human teratocarcinoma) cells; test: Cytotoxicity assay, 833K cells (sulforhodamine B protein content); type: cell-based; settings: Homo sapiens; 833K cells, sulforhodamine B; read-out: Inhibition of cancer cell growth IC50, 833K
Experimental: (§1) Cultures were fixed with trichloroacetic acid and then stained for 30 minutes with 0.4% sulforhodamine B dissolved in 1% acetic acid. Unbound dye was removed by acetic acid washes, and the protein-bound dye was extracted with an unbuffered Tris base [tris(hydroxy-methyl)aminomethan] for determination of absorbance at 570 nm in a 96-well microplate reader. The experiments were carried out in duplicate using five to six concentrations of the drugs tested. Data were analyzed via computer software.

[5] = system: DC-3F (hamster lung) cells; test: Cytotoxicity assay, DC-3F cells (sulforhodamine B protein content); type: cell-based; settings: Mesocricetus auratus, DC3F; DC-3F cells, sulforhodamine B; read-out: Inhibition of cancer cell growth IC50, DC-3F
Experimental: as §1

[6] = Kinetics of lactone ring opening in PBS buffer (HPLC); type: physicochemical; settings: for % Lactone at Equilibrium: PBS; for half-life: pH 7.4
Experimental: Kinetics of Lactone Ring Opening. […] Mi and Burke (1994), supra.
FIG. 21 summarizes the stability of DB172 in phosphate buffered saline (PBS) buffer, pH 7.4, at physiological temperature. Shown in the figure are plots of lactone fraction as a function of time for DB172 at different concentrations. Drug was added to solution from a concentrated DMSO stock solution such that the volumes of DMSO were very small (less than 0.5%) relative to the volume of water. […] At the more dilute drug concentrations the drug hydrolyzes as previously observed for other camptothecins containing the ^α-hydroxy-^δ-lactone moiety.

[7] = system: HL-60 (human promyelocytic leukemic) cells; test: Cytotoxicity assay, HL-60 cells (XTT-microculture tetrazolium assay); type: cell-based; settings: Homo sapiens; HL-60 cells, 72 hr incubation, XTT; read-out: Inhibition of cancer cell growth IC50, HL-60
Experimental: The camptothecin derivatives were evaluated for their cytotoxic effects on the growth of HL-60 (human promyelocytic leukemic), 833K (human teratocarcinoma) and DC-3F (hamster lung) cells in vitro. The cells were cultured in an initial density of […]. They were maintained in a 5% CO2 humidified atmosphere at 37° C. in RPMI-1640 media (GIBCO-BRL Grand Island, N.Y.) containing penicillin 100 μ/ml)/streptomycin (100 ^μg/ml) (GIBCO-BRL) and 10% heat inactivated fetal bovine serum. The assay was performed in duplicate in 96-well microplates. The cytotoxicity of the compounds toward HL-60 cells following 72 hr incubation was determined by XTT-microculture tetrazolium assay. Scudiero, D. A., et al., Cancer Res., 48, 4827 (1988), the disclosure of which is incorporated herein by reference. 2′, 3′-bis(-methoxy-4-nitro-5-sulfheny)-5-[(phenylamino)carbonyl]-2H-tetrazolium hydroxide (XTT) was prepared at 1 mg/ml in prewarmed (37° C.) medium without serum. Phenazine methosulfate (PMS) and fresh XTT were mixed together to obtain 0.075 mM PMS-XTT solution (25 ^μl of the stock 5 mM PMS was added per 5 ml of 1 mg/ml XTT). Fifty ^μl of this mixture was added to each well of the cell culture at the end of 72 hr incubation. After incubation at 37° C. for 4 hr., absorbance at 450 nm and 630 nm was measured with a microplate reader (EL340, Bio-Tek Instruments, Inc., Winooski, Vt.).

[8] = Equilibrium binding to DMPC small unilamellar vesicles (fluorescence anisotropy titration); settings: for KDMPC overall association constant: PBS buffer at PH 7.4 and 37° C.
[9] = Equilibrium binding to DMPG small unilamellar vesicles (fluorescence anisotropy titration); settings: PBS buffer at PH 7.4 and 37° C.
[10] = Kinetics of lactone ring opening in PBS containing HSA (HPLC); settings: for % Lactone at Equilibrium / t1/2: HSA (PBS containing 30 mg/ml HSA)
[11] = Kinetics of lactone ring opening in whole human blood (HPLC); settings: Whole Blood, physiological temperature;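 further: hydrolytic opening of the camptothecin lactone ring followed over time by quantitative C18 reversed-phase HPLC in human whole blood at physiological temperature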
[12] = Self-association in aqueous solution (fluorescence intensity with time); type: physicochemical; settings: lactone drug forms added to solution, time=0
Experimental: FIG. 22 summarizes the dependence of the fluorescence intensity of DB172 as a function of time and pH. In these experiments DB172 is added to solution as the lactone form. At low pH where the drug remains in the lactone form, the change in intensity with time is the lowest. At pH 10, where the conditions are such that the lactone more readily hydrolyzes and forms carboxylate, a significant change in fluorescence intensity is observed. It appears that a pH 10 nonfluorescent micellular aggregates composed of lactone disassemble and form open-ring carboxylate forms that tend to exist in solution as monomeric fluorescent species.
FIG. 23 explores the fluorescence intensity of DB172 as a function of concentration. Following the addition of low concentration of lactone drug to solution, the change in fluorescence signal is the greatest whereas at high drug concentration (10 ^μM) the fluorescence intensity changes are minimal. It is believed that a low concentration the micellular aggregates of DB172 displaying reduced fluorescence can disassemble and form fluorescent carboxylate species, but at higher drug concentration the equilibrium favors that the agent remains in the aggregated or reduced fluorescence state. […] Once again this decrease in fluorescence that occurs at reduced pH appear to be due to the formation of lactone aggregates of reduced fluorescence quantum yield.
FIGS. 21 through 24 are consistent with the unusual ability of DB172 lactone to self-associate and form micelles at micromolar drug concentrations. The micellular DB172 aggregates display a reduced fluorescence. If conditions allow for hydrolysis to occur such that carboxylate forms, there is an increase in the fluorescence intensity of the sample. FIG. 25 compares the relative change in the fluorescence emission of a sample following addition of lactone drug forms to solution. In these experiments the values for each drug are normalized to a value of 1 at time equals to zero, and the ability of the various analogs to disassociate in the event the drugs are aggregated at time=0 is monitored with time. […]

[13] = system: MDA-MB-435 tumorigenic metastatic human breast cancer cells; test: cells; type: cell-based
Experimental: Cells. […] The cells were exposed to a range of drug concentrations for 72 hr exposure periods and then viability was assessed using a sulphorrhodamine B (SRB) assay. SRB assays were performed using a standard assay.
Sulphorhodamine B (SRB) assay was used. This assay measures the total protein levels in the living cells. Proteins from dead cells are lysed and removed in the washing step before TCA fixation. However, it is possible that cells in the early stage of death still have their membrane integrity and therefore retain the protein contents inside. As a result, the optical density at 490 nm can sometimes be overestimated and the cytotoxicity underestimated. […] The SRB assay is now a well regarded assay and was recently approved by NCI as a standard assay for anticancer drug screening.

[14] = earlier studies; cited from earlier work

Compound	IC50 [4] [nM]	IC50 [5] [nM]	% Lactone at Equilibrium [6]	half-life ([6]; buffer) [min]	IC50 [7] [nM]	KDMPC overall association constant [8] [M⁻¹]	KDMPG overall association constant [9] [M⁻¹]	% Lactone at Equilibrium [10]	% Lactone at Equilibrium [11]	% lactone at equilibrium in whole human blood [14] [%]	further results
CCC1(O)C(=O)OCc2c1cc1n(c2=O)Cc2c-1nc1ccccc1c2[Si](C)(C)C(C)(C)C (stereo in doubt) [Example 2, (20S)-7-tert-butyldimethylsilylcamptothecin]	1.2	2.9	12.2 +/− 0.4%	27.9	0.12						% Lactone at Equilibrium [1]: 1.0 +/− 0.1%; % Lactone at Equilibrium ([2]; human): 59.4 +/− 0.0%; half-life ([2]; human): 79.4 min; half-life ([3]; blood): 71.9 min
CCC1(O)C(=O)OCc2c1cc1n(c2=O)Cc2c-1nc1ccc(N)cc1c2[Si](C)(C)C (stereo in doubt) [Example 8, (20S)-10-amino-7-trimethylsilylcamptothecin]	5.7	0.72	10.5 +/− 0.3%	31.3	0.52	820	360				% Lactone at Equilibrium [1]: 12.3 +/− 0.0%; half-life ([3]; blood): 37.6 min
CC[C@@]1(O)C(=O)OCc2c1cc1n(c2=O)Cc2c-1nc1ccccc1c2[Si](C)(C)CCCN(C)C.Cl [DB-104, 7-(3-dimethylaminopropyldimethylsilyl) camptothecin hydrochloride salt]			7.5 +/− 0.2%								t1/2 [1]: 77.2 ± 1.8 min; t1/2 ([6]; buffer): 24.1 ± 1.0 min
CC[C@@]1(O)C(=O)OCc2c1cc1n(c2=O)Cc2c-1nc1ccc(O)cc1c2[Si](C)(C)CCCCl [DB-158, (20S)-10-hydroxy-7-(3-chloropropyldimethylsilyl) camptothecin]			11.3 +/− 1.8%					17.2 +/− 0.7%	17.8 +/− 2.0%		% Lactone at Equilibrium ([2]; RBC): 50.2 +/− 1.7%; t1/2 ([2]; RBC): 67.7 ± 8.5 min; t1/2 [10]: 48.0 ± 0.9 min; t1/2 [11]: 65.3 ± 9.0 min
CC[C@@]1(O)C(=O)OCc2c1cc1n(c2=O)Cc2c-1nc1ccccc1c2CC[Si](C)(C)C [DB-172, (20S)-7-[(2-Trimethylsilyl)ethyl]camptothecin]						10500	10600	4.3 +/− 1.0%	24.1 +/− 2.6%		K value for DMPC, fold greater than camptothecin ([8]; relative to camptothecin): ~100 fold; t1/2 [10]: 86.1 ± 10.3 min; self-association / aggregation state in solution [12]: self-associates to an exceptionally high degree; t1/2 [11]: 106.6 ± 10.8 min; lactone ring stability at high drug concentrations ([6]; PBS buffer, pH 7.4, physiological temperature): marked stabilization of the lactone ring
CC[C@@]1(O)C(=O)OCc2c1cc1n(c2=O)Cc2c-1nc1ccc(N)cc1c2CC[Si](C)(C)C [DB-173]			11.9 +/− 0.3%	45.3		5800	5800				IC50 ([13]; Homo sapiens, MDA-MB-435, 72 h, read-out: IC50 (w/o HSA)): 4 nM; effect of 1 mg/ml HSA on the cytotoxic activity ([13]; MDA-MB-435 cells): no effect; K value for DMPC, fold greater than camptothecin ([8]; relative to camptothecin): ~58 fold; half-life ([3]; whole blood): 69 min; half-life ([10]; human, PBS containing 30 mg/ml HSA, pH 7.4): 49 min; self-association / aggregation state in solution [12]: much more likely to be found in solution as monomeric drug relative to DB172
CCc1c2c(nc3ccc(OC(=O)N4CCC(N5CCCCC5)CC4)cc13)-c1cc3c(c(=O)n1C2)COC(=O)[C@]3(O)CC [IRT, irinotecan, reference compound]	487	372			270				21.0%	21.0	lactone level at equilibrium in whole blood, fold greater than 9-aminocamptothecin [1]: approximately 40 fold
CCc1c2c(nc3ccc(O)cc13)-c1cc3c(c(=O)n1C2)COC(=O)[C@]3(O)CC [SN-38, 10-hydroxy-7-ethylcamptothecin, reference compound]						260	160		19.5%	19.5	t1/2 [1]: 50.7 ± 1.4 min; % Lactone at Equilibrium ([11]; listed as SN 38): 20.2 +/− 1.9%
CC[C@@]1(O)C(=O)OCc2c1cc1n(c2=O)Cc2cc3c(CN(C)C)c(O)ccc3nc2-1 [Topotecan, topotecan, reference compound]								7.06 +/− 0.3%	8.61 +/− 0.4%	11.9	lactone level at equilibrium in whole blood, fold greater than 9-aminocamptothecin [1]: 20 fold; K value for DMPC liposomes, times less than that for camptothecin ([8]; relative to camptothecin): ~10 times; half-life ([3]; whole blood): 30.9 min; % Lactone at Equilibrium ([11]; listed as topotecan): 8.6%
